Data taken from patent US9428733B2, “Method for obtaining pancreatic endocrine cells from adipose tissue-origin cells” (AKIFUMI MATSUYAMA, priority 2005, dated 2016).

System: pancreatic islets obtained from adipose tissue-derived cells
Test: Insulin secretion from pancreatic islets obtained from adipose tissue-derived cells, ELISA of culture supernatant
Format: cell-based, Human
Conditions: 2 hours; for secretion of insulin: RPMI 1640 containing 3.3 mM or 16.7 mM glucose, FIG. 17
Experimental: The insulin level and the C-peptide level in the culture supernatant were measured using ELISA kit (Mercodia).

| Structure (SMILES) | secretion of insulin (100 μM) | amount (insulin, C-peptide) secreted by islets in medium containing theophylline versus medium without (10 mM theophylline control, 3.3 mM or 16.7 mM glucose, FIGS. 14-16) | secretion of insulin (10 μM) |
| --- | --- | --- | --- |
| CC(C)Cn1c(=O)n(C)c(=O)c2[nH]cnc21 [IBMX] | promoted |  |  |
| C[N+](C)(C)CCOC(N)=O [carbachol] | promoted |  |  |
| Cn1c(=O)c2[nH]cnc2n(C)c1=O [theophylline] | promoted | similar |  |
| CCCCNC(=O)NS(=O)(=O)c1ccc(C)cc1 [tolbutamide] |  |  | promoted |
